# Data reported in article PMC10818746, “Inhibition of CYP1A1 Alleviates Colchicine-Induced Hepatotoxicity” (Toxins, 2024).
# Columns and labels:
# Type in all cases: in vitro ADME
# Conditions in all cases: colchicine 25 µM, NADPH 1 mM, CYP 2 pmol/mL, PBS pH 7.4; mean ± SD (n = 2)
# CYP1B1 = biological target: T1, CYP1B1 (Homo sapiens, UniProt Q16678); experiment: Colchicine metabolism by cDNA-expressed recombinant CYP1B1
# T1 construct: purchased Research Institute for Liver Diseases Co., Ltd. (Shanghai, China)
# T1 sequence (Q16678 1-543): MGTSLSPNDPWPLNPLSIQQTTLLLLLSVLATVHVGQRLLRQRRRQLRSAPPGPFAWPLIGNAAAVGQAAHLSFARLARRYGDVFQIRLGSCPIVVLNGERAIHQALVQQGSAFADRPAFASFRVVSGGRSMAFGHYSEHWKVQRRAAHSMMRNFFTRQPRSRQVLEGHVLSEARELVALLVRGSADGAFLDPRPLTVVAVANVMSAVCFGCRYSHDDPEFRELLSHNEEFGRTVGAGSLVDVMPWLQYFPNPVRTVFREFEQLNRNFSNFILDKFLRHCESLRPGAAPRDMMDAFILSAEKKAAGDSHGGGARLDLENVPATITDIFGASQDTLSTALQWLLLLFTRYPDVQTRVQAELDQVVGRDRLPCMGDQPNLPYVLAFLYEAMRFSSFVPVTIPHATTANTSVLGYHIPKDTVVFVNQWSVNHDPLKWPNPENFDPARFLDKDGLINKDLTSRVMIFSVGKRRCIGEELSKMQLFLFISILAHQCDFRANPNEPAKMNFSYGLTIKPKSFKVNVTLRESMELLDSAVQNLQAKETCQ
# Description: (§1) Pre-cooled acetonitrile was used to terminate the reaction, and then centrifugation (4 °C, 12,000 rpm, 20 min) was performed to obtain the sample.
# (§2) All samples were analyzed as shown in [17] and are briefly described in Supporting Information. […]
# (§3) Supplementary materials and methods
# (§4) Reference numbers refer to the main text list
# (§5) UHPLC‐Q exactive plus MS Analysis
# (§6) All samples were analyzed on a liquid chromatography system including a Vanquish autosampler, Vanquish detector, Vanquish pump (Thremo Fisher Scientific, Santa Clara, CA). Samples were separated on an ACQUITY UPLC HSS T3 column (2.1×100 mm, […], Waters, USA). The injection volume: 5 μL, and the flow rate was 0.3 mL/min.
# (§7) Phase A was H2O containing 0.01% formic acid, and phase B was acetonitrile containing 0.01% formic acid. The elution gradient was as follows: 0‐12 mi n, 2‐98% B; 12‐14 min, 2% A; 14‐16 min, 98% A. Other parameters are as follows: column temperature 45 ℃ , flow rate of collision gas and dry gas 9 L/min. Capillary voltage 3.5 kV, temperature 350 ℃ , atomizer pressure 35 psi. Vanquish UHPLC‐Q Exactive plus MS (Thermo Fisher, USA) was collected in both positive modes, operating in full scan mode with 60‐900 m/z. […]
# CYP2A6 = biological target: T2, CYP2A6 (Homo sapiens, UniProt P11509); experiment: Colchicine metabolism by cDNA-expressed recombinant CYP2A6
# T2 construct: purchased Research Institute for Liver Diseases Co., Ltd. (Shanghai, China)
# T2 sequence (P11509 whole entry): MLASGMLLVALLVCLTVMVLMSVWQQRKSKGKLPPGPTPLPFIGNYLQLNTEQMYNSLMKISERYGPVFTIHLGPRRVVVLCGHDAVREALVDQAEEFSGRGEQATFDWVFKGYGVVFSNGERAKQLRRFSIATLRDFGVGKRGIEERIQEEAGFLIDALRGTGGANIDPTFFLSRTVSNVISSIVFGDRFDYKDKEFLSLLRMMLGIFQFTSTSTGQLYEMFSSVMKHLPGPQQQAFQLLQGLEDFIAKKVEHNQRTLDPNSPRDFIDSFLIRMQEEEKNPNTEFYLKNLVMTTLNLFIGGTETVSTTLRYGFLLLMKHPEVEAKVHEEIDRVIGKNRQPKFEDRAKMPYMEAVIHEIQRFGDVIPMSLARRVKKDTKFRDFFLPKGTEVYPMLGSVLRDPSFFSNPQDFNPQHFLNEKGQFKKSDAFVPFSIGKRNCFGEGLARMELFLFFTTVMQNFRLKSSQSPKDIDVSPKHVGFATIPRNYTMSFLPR
# Description: as §1, §2, §3, §4, §5, §6, §7
# CYP2B6 = biological target: T3, CYP2B6 (Homo sapiens, UniProt P20813); experiment: Colchicine metabolism by cDNA-expressed recombinant CYP2B6
# T3 construct: purchased Research Institute for Liver Diseases Co., Ltd. (Shanghai, China)
# T3 sequence (P20813 1-491): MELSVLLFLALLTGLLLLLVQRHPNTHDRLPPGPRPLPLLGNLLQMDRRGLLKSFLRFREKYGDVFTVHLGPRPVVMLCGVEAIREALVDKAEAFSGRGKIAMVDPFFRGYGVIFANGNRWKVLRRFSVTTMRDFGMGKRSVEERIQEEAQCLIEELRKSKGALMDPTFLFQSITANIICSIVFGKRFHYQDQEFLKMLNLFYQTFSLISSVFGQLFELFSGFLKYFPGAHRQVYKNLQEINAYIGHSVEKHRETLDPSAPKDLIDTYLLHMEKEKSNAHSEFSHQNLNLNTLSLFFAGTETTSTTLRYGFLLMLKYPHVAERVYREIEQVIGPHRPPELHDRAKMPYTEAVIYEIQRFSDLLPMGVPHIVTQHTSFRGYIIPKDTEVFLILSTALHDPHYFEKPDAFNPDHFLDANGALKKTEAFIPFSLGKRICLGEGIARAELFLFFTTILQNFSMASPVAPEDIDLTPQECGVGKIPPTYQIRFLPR
# Description: as §1, §2, §3, §4, §5, §6, §7
# CYP2C8 = biological target: T4, CYP2C8 (Homo sapiens, UniProt P10632); experiment: Colchicine metabolism by cDNA-expressed recombinant CYP2C8
# T4 construct: purchased Research Institute for Liver Diseases Co., Ltd. (Shanghai, China)
# T4 sequence (P10632 1-490): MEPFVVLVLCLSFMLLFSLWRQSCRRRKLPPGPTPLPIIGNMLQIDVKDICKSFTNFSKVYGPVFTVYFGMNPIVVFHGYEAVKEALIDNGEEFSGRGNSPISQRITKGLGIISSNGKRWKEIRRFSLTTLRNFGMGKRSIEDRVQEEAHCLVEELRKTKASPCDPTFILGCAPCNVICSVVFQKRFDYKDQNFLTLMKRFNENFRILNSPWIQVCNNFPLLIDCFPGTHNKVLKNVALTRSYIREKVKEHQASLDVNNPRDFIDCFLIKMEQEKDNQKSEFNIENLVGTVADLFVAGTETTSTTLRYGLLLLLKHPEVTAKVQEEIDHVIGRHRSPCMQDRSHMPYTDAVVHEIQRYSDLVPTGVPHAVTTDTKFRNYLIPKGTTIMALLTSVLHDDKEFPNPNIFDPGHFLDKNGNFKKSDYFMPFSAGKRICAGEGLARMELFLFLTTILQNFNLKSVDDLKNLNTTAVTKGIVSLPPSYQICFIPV
# Description: as §1, §2, §3, §4, §5, §6, §7
# CYP2E1 = biological target: T5, CYP2E1 (Homo sapiens, UniProt P05181); experiment: Colchicine metabolism by cDNA-expressed recombinant CYP2E1
# T5 construct: purchased Research Institute for Liver Diseases Co., Ltd. (Shanghai, China)
# T5 sequence (P05181 whole entry): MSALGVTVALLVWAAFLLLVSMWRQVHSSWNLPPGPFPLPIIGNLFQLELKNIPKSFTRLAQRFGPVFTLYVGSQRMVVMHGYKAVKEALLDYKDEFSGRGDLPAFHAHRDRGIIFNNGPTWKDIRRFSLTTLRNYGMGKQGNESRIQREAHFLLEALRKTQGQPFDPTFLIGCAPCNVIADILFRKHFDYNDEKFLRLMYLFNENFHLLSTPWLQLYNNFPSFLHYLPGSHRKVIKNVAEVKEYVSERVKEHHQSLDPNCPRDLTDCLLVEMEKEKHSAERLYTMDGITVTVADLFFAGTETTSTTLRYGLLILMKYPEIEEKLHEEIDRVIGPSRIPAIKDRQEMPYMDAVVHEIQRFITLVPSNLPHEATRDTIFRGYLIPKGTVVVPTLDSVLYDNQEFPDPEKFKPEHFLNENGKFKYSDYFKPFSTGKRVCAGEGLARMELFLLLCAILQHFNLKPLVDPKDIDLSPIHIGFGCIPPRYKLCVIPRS
# Description: as §1, §2, §3, §4, §5, §6, §7
# CYP3A4 = biological target: T6, CYP3A4 (Homo sapiens, UniProt P08684); experiment: Colchicine metabolism by cDNA-expressed recombinant CYP3A4
# T6 construct: purchased Research Institute for Liver Diseases Co., Ltd. (Shanghai, China)
# T6 sequence (P08684 whole entry): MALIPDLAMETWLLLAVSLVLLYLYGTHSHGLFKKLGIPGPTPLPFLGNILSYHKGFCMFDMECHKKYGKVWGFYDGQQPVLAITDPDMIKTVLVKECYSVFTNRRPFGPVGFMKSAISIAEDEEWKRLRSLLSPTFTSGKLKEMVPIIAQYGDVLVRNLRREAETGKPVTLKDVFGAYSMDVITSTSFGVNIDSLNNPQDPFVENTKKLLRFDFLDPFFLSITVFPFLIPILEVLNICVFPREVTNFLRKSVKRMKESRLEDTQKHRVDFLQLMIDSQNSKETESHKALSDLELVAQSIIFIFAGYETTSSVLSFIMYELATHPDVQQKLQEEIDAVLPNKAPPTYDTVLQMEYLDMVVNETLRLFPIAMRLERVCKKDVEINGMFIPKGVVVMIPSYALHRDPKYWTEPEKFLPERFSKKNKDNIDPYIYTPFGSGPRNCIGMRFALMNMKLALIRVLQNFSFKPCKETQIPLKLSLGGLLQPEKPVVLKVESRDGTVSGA
# Description: as §1, §2, §3, §4, §5, §6, §7
# CYP4A11 = biological target: T7, CYP4A11 (Homo sapiens, UniProt Q02928); experiment: Colchicine metabolism by cDNA-expressed recombinant CYP4A11
# T7 construct: purchased Research Institute for Liver Diseases Co., Ltd. (Shanghai, China)
# T7 sequence (Q02928 5-519): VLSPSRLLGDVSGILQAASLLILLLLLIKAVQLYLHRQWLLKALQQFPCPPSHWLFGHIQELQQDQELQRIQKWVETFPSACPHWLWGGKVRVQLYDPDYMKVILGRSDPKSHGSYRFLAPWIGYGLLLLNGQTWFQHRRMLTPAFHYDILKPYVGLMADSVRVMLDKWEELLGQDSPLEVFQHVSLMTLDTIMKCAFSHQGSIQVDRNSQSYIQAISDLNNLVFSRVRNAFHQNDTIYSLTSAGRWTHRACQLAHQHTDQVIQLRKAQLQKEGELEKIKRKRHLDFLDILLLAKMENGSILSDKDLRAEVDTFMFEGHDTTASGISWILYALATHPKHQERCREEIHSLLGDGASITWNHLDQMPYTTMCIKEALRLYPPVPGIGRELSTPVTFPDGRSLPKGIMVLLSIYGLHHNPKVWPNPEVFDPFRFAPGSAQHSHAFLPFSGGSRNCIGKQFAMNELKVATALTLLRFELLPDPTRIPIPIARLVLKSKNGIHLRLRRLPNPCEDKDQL
# Description: as §1, §2, §3, §4, §5, §6, §7
SMILES,peak area of the metabolite after incubation with CYP1B1 as a percentage of the total peak areas from all the CYPs (CYP1B1),peak area of the metabolite after incubation with CYP2A6 as a percentage of the total peak areas from all the CYPs (CYP2A6),peak area of the metabolite after incubation with CYP2B6 as a percentage of the total peak areas from all the CYPs (CYP2B6),peak area of the metabolite after incubation with CYP2C8 as a percentage of the total peak areas from all the CYPs (CYP2C8),peak area of the metabolite after incubation with CYP2E1 as a percentage of the total peak areas from all the CYPs (CYP2E1),peak area of the metabolite after incubation with CYP3A4 as a percentage of the total peak areas from all the CYPs (CYP3A4),peak area of the metabolite after incubation with CYP4A11 as a percentage of the total peak areas from all the CYPs (CYP4A11)
COc1cc2c(c(OC)c1OC)-c1ccc(O)c(=O)cc1[C@@H](NC(C)=O)CC2 [M4],7.00 ± 0.10%,6.66 ± 2.12%,7.77 ± 0.57%,7.21 ± 0.40%,6.93 ± 0.40%,12.18 ± 0.70%,6.78 ± 0.33%
COc1cc2c(c(OC)c1OC)-c1ccc(OC)c(=O)cc1C=CC2 [M6],7.14 ± 0.77%,8.25 ± 0.69%,9.86 ± 0.58%,6.90 ± 1.01%,8.09 ± 0.37%,6.55 ± 0.65%,6.01 ± 0.22%
COc1cc2c(c(OC)c1O)-c1ccc(OC)c(=O)cc1[C@@H](NC(C)=O)CC2 [M1],4.56 ± 1.73%,5.39 ± 0.90%,6.90 ± 0.52%,6.82 ± 0.03%,4.77 ± 2.02%,14.93 ± 1.41%,6.48 ± 0.33%
COc1c(O)cc2c(c1O)-c1ccc(OC)c(=O)cc1[C@@H](NC(C)=O)CC2 [M8],7.48 ± 2.17%,4.23 ± 0.62%,10.13 ± 3.38%,8.61 ± 4.55%,6.78 ± 0.72%,12.27 ± 1.54%,7.65 ± 1.95%
COc1cc2c(c(O)c1OC)-c1ccc(OC)c(=O)cc1[C@@H](NC(C)=O)CC2 [M2],2.53 ± 0.65%,2.64 ± 0.16%,4.42 ± 0.21%,3.69 ± 0.02%,3.69 ± 0.51%,47.73 ± 5.45%,3.57 ± 0.39%
COc1c(O)cc2c(c1OC)-c1ccc(OC)c(=O)cc1[C@@H](NC(C)=O)C=C2 [M5],7.27 ± 2.20%,7.26 ± 8.64%,7.86 ± 0.00%,7.37 ± 0.00%,7.32 ± 0.00%,7.72 ± 15.62%,8.01 ± 0.00%
